Data as given in patent US20220348563A1, “KDM INHIBITORS AND USES THEREOF” (DANA-FARBER CANCER INSTITUTE, INC., priority 2019, published 2022).
pIC50: −log10 of the molar value.

Target: T1, KDM3A (Homo sapiens, UniProt Q9Y4C1)
T1 sequence (Q9Y4C1 1-1321): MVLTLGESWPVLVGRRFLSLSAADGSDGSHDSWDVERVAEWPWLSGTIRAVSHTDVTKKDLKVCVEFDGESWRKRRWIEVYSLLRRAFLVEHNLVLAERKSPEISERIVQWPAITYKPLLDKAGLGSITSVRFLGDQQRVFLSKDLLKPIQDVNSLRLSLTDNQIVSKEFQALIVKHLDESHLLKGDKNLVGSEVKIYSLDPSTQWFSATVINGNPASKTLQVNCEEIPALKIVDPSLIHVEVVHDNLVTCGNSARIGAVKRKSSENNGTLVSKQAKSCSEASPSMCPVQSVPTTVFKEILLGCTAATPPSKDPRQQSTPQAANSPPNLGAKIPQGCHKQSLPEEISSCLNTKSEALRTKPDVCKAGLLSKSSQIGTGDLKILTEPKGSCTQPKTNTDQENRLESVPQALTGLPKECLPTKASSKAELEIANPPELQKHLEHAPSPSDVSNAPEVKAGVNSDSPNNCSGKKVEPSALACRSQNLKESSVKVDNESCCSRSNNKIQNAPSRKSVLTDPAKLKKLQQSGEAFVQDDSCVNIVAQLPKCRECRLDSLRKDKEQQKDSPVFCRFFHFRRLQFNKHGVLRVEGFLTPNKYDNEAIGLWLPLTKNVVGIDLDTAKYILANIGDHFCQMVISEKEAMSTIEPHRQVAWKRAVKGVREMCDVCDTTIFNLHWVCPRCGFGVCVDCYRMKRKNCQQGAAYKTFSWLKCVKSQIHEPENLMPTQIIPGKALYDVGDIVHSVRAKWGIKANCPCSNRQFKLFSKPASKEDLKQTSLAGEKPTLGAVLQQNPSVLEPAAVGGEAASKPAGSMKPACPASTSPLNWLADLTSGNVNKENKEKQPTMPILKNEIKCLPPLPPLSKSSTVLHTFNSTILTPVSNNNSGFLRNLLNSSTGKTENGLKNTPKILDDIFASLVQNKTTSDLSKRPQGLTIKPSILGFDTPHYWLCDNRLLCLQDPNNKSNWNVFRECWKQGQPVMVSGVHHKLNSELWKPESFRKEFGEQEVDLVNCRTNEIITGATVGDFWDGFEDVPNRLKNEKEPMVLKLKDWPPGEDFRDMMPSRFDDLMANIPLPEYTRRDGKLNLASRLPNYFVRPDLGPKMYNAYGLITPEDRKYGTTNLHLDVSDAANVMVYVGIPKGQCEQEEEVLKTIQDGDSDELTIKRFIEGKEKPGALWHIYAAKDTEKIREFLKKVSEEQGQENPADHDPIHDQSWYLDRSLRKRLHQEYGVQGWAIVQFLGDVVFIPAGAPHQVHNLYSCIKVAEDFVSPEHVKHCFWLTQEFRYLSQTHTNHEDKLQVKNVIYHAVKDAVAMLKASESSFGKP
Assay: KDM3 AlphaScreen assay (Table 2, ASSAY 9)
Format: biochemical
Conditions: ASSAY 9
Experimental: AlphaScreen assays were performed in 384-well plate format using white AlphaPlate™ (PerkinElmer®, USA), and transfer of pre-diluted compound (100 nL) was performed using a Janus® Workstation (PerkinElmer®, USA). All subsequent steps were carried out in assay buffer (50 mM 4-(2-hydroxyethyl)-1-piperazineethanesulfonic acid (HEPES), pH 7.5, 0.1% (wt/vol) bovine serum albumin (BSA) and 0.01% (vol/vol) Tween®20). In brief, 10 μL of assay buffer containing demethylase enzyme (2 nM Final) was pre-incubated for 15 min with dilutions of compound. The enzyme reaction was initiated by the addition of substrate (5 μL) consisting of L-ascorbic acid (100 μM Final), […] (OG) (5 μM Final), FAS (10 μM Final) and histone H3(1-21)K9Me3-GGK Biotin (100 nM Final). The enzyme reaction was allowed to proceed for 30 minutes and was stopped by the addition of 5 μL of assay buffer containing ethylenediaminetetraacetic acid (EDTA) (40 mM) and NaCl (1,200 mM). The final concentration of DMSO was 1%. Streptavidin donor beads (0.08 mg/ml) and protein-A-conjugated acceptor beads (0.08 mg/ml) were preincubated for 1 h with antibody to methyl mark (300 ng/mL Final), and the presence of histone H3 product methyl mark was detected using the preincubated AlphaScreen™ beads (5 μL). Detection was allowed to proceed for 2 h at room temperature, and the assay plates were read on the EnVision® 2104 plate reader. Data were normalized to the (no-enzyme) control, and the IC50 values were determined via nonlinear regression curve fit using GraphPad Prism 7.

| pIC50 | SMILES |
| --- | --- |
| 4.70 | CN(C)c1ccc(CCC(=O)Nc2ccc(C(F)(F)F)cc2C(=O)N2CCC(Oc3ccc(-c4ccc(N(C)C)cc4)cn3)CC2)cc1 [KDM3-53, 3-(4-(dimethylamino)phenyl)-N-(2-(4-((5-(4-(dimethylamino)phenyl)pyridin-2-yl)oxy)piperidine-1-carbonyl)-4-(trifluoromethyl)phenyl)propanamide] |
| 4.63 | CN(C)c1ccc(CCC(=O)Nc2ccc(OC(F)(F)F)cc2C(=O)N2CCC(Oc3ccc(-c4ccc(N(C)C)cc4)cn3)CC2)cc1 [KDM3-59, 3-(4-(dimethylamino)phenyl)-N-(2-(4-((5-(4-(dimethylamino)phenyl)pyridin-2-yl)oxy)piperidine-1-carbonyl)-4-(trifluoromethoxy)phenyl)propanamide] |
| 4.46 | COc1ccc(S(=O)(=O)Nc2ccc(F)cc2C(=O)N2CCC(Oc3ccc(-c4ccc(N(C)C)cc4)cn3)CC2)cc1OC [KDM3-60] |
